In patent US20250230193A1, “CYCLIC COMPOUND HAVING SELECTIVE KRAS INHIBITORY EFFECT ON HRAS AND NRAS” (CHUGAI SEIYAKU KABUSHIKI KAISHA, priority 2022, published 2025):

What was measured:
[1] = target: GDP-bound NRAS wild-type protein (Homo sapiens, UniProt P01111); assay: Binding to NRAS by surface plasmon resonance (SPR), Single Cycle Kinetics; details: KD ratio NRAS/KRAS, class symbols
[2] = target: GDP-bound HRAS wild-type protein (Homo sapiens, UniProt P01112); assay: Binding to HRAS by surface plasmon resonance (SPR), Single Cycle Kinetics; details: KD ratio HRAS/KRAS, class symbols
Chain of GDP-bound HRAS wild-type protein (P01112 whole entry): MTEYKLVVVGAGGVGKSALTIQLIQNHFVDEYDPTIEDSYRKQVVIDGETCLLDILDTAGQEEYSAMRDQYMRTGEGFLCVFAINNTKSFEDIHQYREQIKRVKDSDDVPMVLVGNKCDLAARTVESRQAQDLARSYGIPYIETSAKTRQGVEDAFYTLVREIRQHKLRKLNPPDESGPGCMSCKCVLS

Chain of GDP-bound NRAS wild-type protein (P01111 whole entry): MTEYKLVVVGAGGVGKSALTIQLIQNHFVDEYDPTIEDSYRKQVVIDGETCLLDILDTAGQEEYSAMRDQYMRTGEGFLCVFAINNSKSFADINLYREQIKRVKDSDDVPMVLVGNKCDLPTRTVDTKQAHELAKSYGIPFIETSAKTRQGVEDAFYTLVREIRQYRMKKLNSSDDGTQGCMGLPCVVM

Row | Compound | NRAS/KRAS (ratio of KD value with respect to GDP-bound NRAS wild-type protein to KD value with respect to KRAS) [1] | HRAS/KRAS (ratio of KD value with respect to GDP-bound HRAS wild-type protein to KD value with respect to KRAS) [2]
1 | CCC[C@H]1C(=O)N[C@@H]([C@@H](C)CC)C(=O)N2CCC[C@H]2C(=O)N(C)[C@H]2C/C=C\CCN(C2=O)[C@@H](Cc2ccc(C)cc2)C(=O)N(C)CC(=O)N[C@@H](CCc2ccc(Cl)c(Cl)c2)C(=O)N2C[C@H](OC(C)C)C[C@H]2C(=O)NC2(CC(C)(C)C2)C(=O)N(C)[C@@H](C(CC)CC)C(=O)N(C)[C@H](C(=O)N(C)C)CC(=O)N1C [PP2641] | AA (a compound having 20 or more is denoted as AA) | A (a compound having 10 or more and less than 20 is denoted as A)
2 | CCC(CC)[C@H]1C(=O)N(C)[C@H](C(=O)N(C)C)CC(=O)N(C)[C@@H](COC)C(=O)N[C@@H]([C@@H](C)CC)C(=O)N(C)CC(=O)N(C)[C@H]2C/C=C\CCN(C2=O)[C@@H](Cc2ccc(C(F)(F)F)cc2)C(=O)N(C)CC(=O)N[C@@H](CCc2ccc(Cl)c(Cl)c2)C(=O)N2C[C@H](OC3CCC3)C[C@H]2C(=O)NC2(CC(C)(C)C2)C(=O)N1C [PP2642] | AA (a compound having 20 or more is denoted as AA) | A (a compound having 10 or more and less than 20 is denoted as A)
3 | CCC[C@H]1C(=O)N[C@@H]([C@@H](C)CC)C(=O)N(C)CC(=O)N(C)[C@H]2C/C=C\CCN(C2=O)[C@@H](Cc2ccc(C(F)F)cc2)C(=O)N(C)CC(=O)N[C@@H](CCc2ccc(Cl)c(Cl)c2)C(=O)N2C[C@H](OC3CCC3)C[C@H]2C(=O)NC2(CC(C)(C)C2)C(=O)N(C)[C@@H](C(CC)CC)C(=O)N(C)[C@H](C(=O)N(C)C)CC(=O)N1C [PP2643] | AA (a compound having 20 or more is denoted as AA) | A (a compound having 10 or more and less than 20 is denoted as A)
4 | CCC[C@H]1C(=O)N[C@@H]([C@@H](C)CC)C(=O)N(C)CC(=O)N(C)[C@H]2C/C=C\CCN(C2=O)[C@@H](Cc2ccc(C)cc2)C(=O)N(C)CC(=O)N[C@@H](CCc2ccc(Cl)c(Cl)c2)C(=O)N2C[C@H](OC3CCC3)C[C@H]2C(=O)NC2(CC(C)(C)C2)C(=O)N(C)[C@@H](C(CC)CC)C(=O)N(C)[C@H](C(=O)N(C)C)CC(=O)N1C [PP2644] | AA (a compound having 20 or more is denoted as AA) | A (a compound having 10 or more and less than 20 is denoted as A)
5 | CCC(CC)[C@H]1C(=O)N(C)[C@H](C(=O)N(C)C)CC(=O)N(C)[C@@H](COC)C(=O)N[C@@H]([C@@H](C)CC)C(=O)N2CCC[C@H]2C(=O)N(C)[C@H]2C/C=C\CCN(C2=O)[C@@H](Cc2ccc(C(F)(F)F)cc2)C(=O)N(C)CC(=O)N[C@@H](CCc2ccc(Cl)c(Cl)c2)C(=O)N2C[C@H](OC3CCC3)C[C@H]2C(=O)NC2(CC(C)(C)C2)C(=O)N1C [PP2645] | AA (a compound having 20 or more is denoted as AA) | A (a compound having 10 or more and less than 20 is denoted as A)
6 | CCC[C@H]1C(=O)N[C@@H]([C@@H](C)CC)C(=O)N2CCC[C@H]2C(=O)N(C)[C@H]2C/C=C\CCN(C2=O)[C@@H](Cc2ccc(C(F)F)cc2)C(=O)N(C)CC(=O)N[C@@H](CCc2ccc(Cl)c(Cl)c2)C(=O)N2C[C@H](OC3CCC3)C[C@H]2C(=O)NC2(CC(C)(C)C2)C(=O)N(C)[C@@H](C(CC)CC)C(=O)N(C)[C@H](C(=O)N(C)C)CC(=O)N1C [PP2646] | AA (a compound having 20 or more is denoted as AA) | A (a compound having 10 or more and less than 20 is denoted as A)
7 | CCC(CC)[C@H]1C(=O)N(C)[C@H](C(=O)N(C)C)CC(=O)N(C)[C@@H](COC)C(=O)N[C@@H]([C@@H](C)CC)C(=O)N(C)CC(=O)N(C)[C@H]2C/C=C\CCN(C2=O)[C@@H](Cc2ccc(C(F)(F)F)cc2)C(=O)N(C)CC(=O)N[C@@H](CCc2ccc(Cl)c(Cl)c2)C(=O)N2C[C@H](OC3CCCC3)C[C@H]2C(=O)NC2(CC(C)(C)C2)C(=O)N1C [PP2648] | A (a compound having 10 or more and less than 20 is denoted as A) | A (a compound having 10 or more and less than 20 is denoted as A)
8 | CCC(CC)[C@H]1C(=O)N(C)[C@H](C(=O)N(C)C)CC(=O)N(C)[C@@H](COC)C(=O)N[C@@H]([C@@H](C)CC)C(=O)N(C)CC(=O)N(C)[C@H]2C/C=C\CCN(C2=O)[C@@H](Cc2ccc(C(F)F)cc2)C(=O)N(C)CC(=O)N[C@@H](CCc2ccc(Cl)c(Cl)c2)C(=O)N2C[C@H](OC3CCCC3)C[C@H]2C(=O)NC2(CC(C)(C)C2)C(=O)N1C [PP2649] | AA (a compound having 20 or more is denoted as AA) | A (a compound having 10 or more and less than 20 is denoted as A)
9 | CCC(CC)[C@H]1C(=O)N(C)[C@H](C(=O)N(C)C)CC(=O)N(C)[C@@H](COC)C(=O)N[C@@H]([C@@H](C)CC)C(=O)N2CCC[C@H]2C(=O)N(C)[C@H]2C/C=C\CCN(C2=O)[C@@H](Cc2ccc(C(F)(F)F)cc2)C(=O)N(C)CC(=O)N[C@@H](CCc2ccc(Cl)c(Cl)c2)C(=O)N2C[C@H](OC3CCCC3)C[C@H]2C(=O)NC2(CC(C)(C)C2)C(=O)N1C [PP2651] | AA (a compound having 20 or more is denoted as AA) | A (a compound having 10 or more and less than 20 is denoted as A)
10 | CCC(CC)[C@H]1C(=O)N(C)[C@H](C(=O)N(C)C)CC(=O)N(C)[C@@H](COC)C(=O)N[C@@H]([C@@H](C)CC)C(=O)N2CCC[C@H]2C(=O)N(C)[C@H]2C/C=C\CCN(C2=O)[C@@H](Cc2ccc(C(F)F)cc2)C(=O)N(C)CC(=O)N[C@@H](CCc2ccc(Cl)c(Cl)c2)C(=O)N2C[C@H](OC3CCCC3)C[C@H]2C(=O)NC2(CC(C)(C)C2)C(=O)N1C [PP2652] | AA (a compound having 20 or more is denoted as AA) | A (a compound having 10 or more and less than 20 is denoted as A)
11 | CC[C@H](C)[C@@H]1NC(=O)[C@H](COC)N(C)C(=O)C[C@@H](C(=O)N(C)C)N(C)C(=O)[C@H](C2CCCCC2)N(C)C(=O)C2(CC(C)(C)C2)NC(=O)[C@@H]2C[C@@H](OC(C)C)CN2C(=O)[C@H](CCc2cc(F)c(C(F)(F)F)c(F)c2)NC(=O)CN(C)C(=O)[C@H](Cc2ccc(C(F)(F)F)cc2)N2CC/C=C\C[C@@H](C2=O)N(C)C(=O)CN(C)C1=O [PP2654] | A (a compound having 10 or more and less than 20 is denoted as A) | A (a compound having 10 or more and less than 20 is denoted as A)
12 | CC[C@H](C)[C@@H]1NC(=O)[C@H](COC)N(C)C(=O)C[C@@H](C(=O)N(C)C)N(C)C(=O)[C@H](C2CCCCC2)N(C)C(=O)C2(CC(C)(C)C2)NC(=O)[C@@H]2C[C@@H](OC3CCC3)CN2C(=O)[C@H](CCc2cc(F)c(C(F)(F)F)c(F)c2)NC(=O)CN(C)C(=O)[C@H](Cc2ccc(C(F)(F)F)cc2)N2CC/C=C\C[C@@H](C2=O)N(C)C(=O)CN(C)C1=O [PP2655] | AA (a compound having 20 or more is denoted as AA) | A (a compound having 10 or more and less than 20 is denoted as A)
13 | CC[C@H](C)[C@@H]1NC(=O)[C@H](COC)N(C)C(=O)C[C@@H](C(=O)N(C)C)N(C)C(=O)[C@H](C2CCCCC2)N(C)C(=O)C2(CC(C)(C)C2)NC(=O)[C@@H]2C[C@@H](OC3CCCC3)CN2C(=O)[C@H](CCc2cc(F)c(C(F)(F)F)c(F)c2)NC(=O)CN(C)C(=O)[C@H](Cc2ccc(C(F)(F)F)cc2)N2CC/C=C\C[C@@H](C2=O)N(C)C(=O)CN(C)C1=O [PP2656] | A (a compound having 10 or more and less than 20 is denoted as A) | B (a compound having 3 or more and less than 10 is denoted as B)
14 | CCO[C@@H]1C[C@H]2C(=O)NC3(CC(C)(C)C3)C(=O)N(C)[C@@H](C3CCCCC3)C(=O)N(C)[C@H](C(=O)N(C)C)CC(=O)N(C)[C@@H](COC)C(=O)N[C@@H]([C@@H](C)CC)C(=O)N(C3CC3)CC(=O)N(C)[C@H]3C/C=C\CCN(C3=O)[C@@H](Cc3ccc(C(F)(F)F)cc3)C(=O)N(C)CC(=O)N[C@@H](CCc3cc(F)c(C(F)(F)F)c(F)c3)C(=O)N2C1 [PP2657] | A (a compound having 10 or more and less than 20 is denoted as A) | A (a compound having 10 or more and less than 20 is denoted as A)
15 | CCO[C@@H]1C[C@H]2C(=O)NC3(CC(C)(C)C3)C(=O)N(C)[C@@H](C3CCCCC3)C(=O)N(C)[C@H](C(=O)N(C)C)CC(=O)N(C)[C@@H](COC)C(=O)N[C@@H]([C@@H](C)CC)C(=O)N(C)CC(=O)N(C)[C@H]3C/C=C\CCN(C3=O)[C@@H](Cc3ccc(C)cc3)C(=O)N(C)CC(=O)N[C@@H](CCc3cc(F)c(C(F)(F)F)c(F)c3)C(=O)N2C1 [PP2659] | A (a compound having 10 or more and less than 20 is denoted as A) | A (a compound having 10 or more and less than 20 is denoted as A)
16 | CC[C@H](C)[C@@H]1NC(=O)[C@H](COC)N(C)C(=O)C[C@@H](C(=O)N(C)C)N(C)C(=O)[C@H](C2CCCCC2)N(C)C(=O)C2(CC(C)(C)C2)NC(=O)[C@@H]2C[C@@H](OC(C)C)CN2C(=O)[C@H](CCc2cc(F)c(C(F)(F)F)c(F)c2)NC(=O)CN(C)C(=O)[C@H](Cc2ccc(C)cc2)N2CC/C=C\C[C@@H](C2=O)N(C)C(=O)CN(C)C1=O [PP2660] | A (a compound having 10 or more and less than 20 is denoted as A) | A (a compound having 10 or more and less than 20 is denoted as A)
